One block for each compound: values may come before it.
Tests used:
[1] = Fluorescence response to various ROS (H2O2 selectivity); details: 20 mM HEPES, pH 7, 25° C.
Experimental: (§1) FIG. 7 is the fluorescence response of 5 μM PF1 to various ROS (10 mM O2^−, 100 μM for all other ROS). .OH and .Ot-Bu were generated by reaction of Fe^2+ with H2O2 or tert-butyl hydroperoxide (TBHP), respectively. NO was delivered using S-nitrosocysteine (SNOC). Spectra were acquired in 20 mM HEPES, pH 7, and all data were obtained after incubation with the appropriate ROS at 25° C. for 1 h. Collected emission was integrated between 460 and 700 nm (λexc=450 nm).
FIG. 8 is the fluorescence response of 5 μM PR1 to various ROS (10 mM O2^−, 100 μM for all other ROS). .OH and .O^tBu were generated by reaction of Fe^2+ with H2O2 or tert-butyl hydroperoxide (TBHP), respectively. NO was delivered using S-nitrosocysteine (SNOC). Spectra were acquired in 20 mM HEPES, pH 7, and all data were obtained after incubation with the appropriate ROS at 25° C. for 30 min. Collected emission was integrated between 570 and 800 nm (λexc=560 nm).
as §1, with “FIG. 9” for “FIG. 7”, “of 10” for “of 5”, “μM PX1” for “μM PF1”, “between 370” for “between 460”, “and 600” for “and 700”, “nm (λexc=350” for “nm (λexc=450”
(§2) Millipore water was used to prepare all aqueous solutions. All spectroscopic measurements were performed in 20 mM HEPES buffer, pH 7. Absorption spectra were recorded using a Varian Cary 50 spectrophotometer (Walnut Creek, Calif.). Fluorescence spectra were recorded using a Photon Technology International Quanta Master 4 L-format scanning spectrofluorometer (Lawrenceville, N.J.) equipped with an LPS-220B 75-W xenon lamp and power supply, A-1010B lamp housing with integrated igniter, switchable 814 photon-counting/analog photomultiplier detection unit, and MD5020 motor driver. Samples for absorption and fluorescence measurements were contained in 1-cm×1-cm quartz cuvettes (1.4- or 3.5-mL volume, Starna, Atascadero, Calif.).
FIG. 7, FIG. 8 and FIG. 9 compare the relative reactivities of boronate-based PF1, PR1, and PX1, respectively, toward various ROS.

[2] = test system: HEK cells; experiment: Confocal and two-photon fluorescence imaging of H2O2 in live HEK cells
Experimental: (a) Fluorescence image of HEK cells incubated with 5 μM PF1 for 5 min at 25° C. (b) Fluorescence image of PF1-stained HEK cells treated with 100 μM H2O2 for 11 min at 25° C. Excitation was provided at 488 nm, and emission was collected in a window from 505 to 580 nm. Scale bar=27 μm.
(a) Fluorescence image of HEK cells incubated with 10 μM PR1 for 10 min at 25° C. (b) Fluorescence image of PR1-stained HEK cells treated with 100 μM H2O2 for 30 min at 25° C. Excitation was provided at 543 nm, and emission was collected in a window from 548 to 644 nm. Scale bar=18 μm.
(a) Fluorescence image of HEK cells incubated with 10 μM PX1 for 2-3 min at 25° C. (b) Fluorescence image of PX1-stained HEK cells treated with 100 μM H2O2 for 30 min at 25° C. Two-photon excitation was provided at 704 nm, and emission was collected in a window from 420 to 500 nm. Scale bar=18 μm.
HEK 293T cells were cultured in Dulbecco's Modified Eagle Medium (DMEM, Invitrogen, Carlsbad, Calif.) supplemented with 10% Fetal Bovine Serum (FBS, Invitrogen), glutamine (2 mM), and penicillin/streptomycin (50 μg/ml, Invitrogen). One day before imaging, cells were passed and plated on 18-mm glass coverslips coated with poly-L-lysine (50 μg/ml, Sigma, St. Louis, Mo.). Immediately before the experiments, cells were washed with PBS buffer, incubated with the probe in PBS, and imaged.
Confocal fluorescence imaging was performed with a Zeiss LSM510 META laser scanning microscope containing an Axioplan 2 MOT upright microscope and a 40× water-immersion objective lens. Excitation of PF1-loaded cells at 488 nm was carried out with an argon ion laser, and emission was Collected in a window from 505 nm to 580 nm using a META detection system. Excitation of PR1-loaded cells at 543 nm was carried out with a HeNe laser, and emission was collected in a window from 548 nm to 644 nm using a META detector. PF1 or PR1 were incubated with live cell samples for 5 to 10 min. Addition of H2O2 (10 to 100 μM) to cell samples was performed directly on the microscope stage by bath application to the media.
Two-photon fluorescence imaging of PX1 was carried out using an inverted Zeiss LSM510 Axiovert 200M microscope with a NeoFLUAR 40×/1.3 NA oil-immersion objective lens. Samples were excited by 704-nm pulses from a mode-locked Ti:Sapphire laser (Tsunami, SpectraPhysics, 120-150 fs pulse width, 80 MHz repetition rate). The emission light was filtered with a 80-nm wide bandpass filter centered at 460 nm (460BP40, Chroma) and detected with the non-descanned detector (NDD) of the LSM510.

[3] = cited from earlier work
[4] = Absorption and emission properties, fluorescence quantum yield; assay type: physicochemical; details: 20 mM HEPES, pH 7; for fluorescence quantum yield Φ: by reference to fluorescein; for extinction coefficient ε at 510 nm: λabs 510 nm
Experimental: as §2
as §2, with “recorded on” for “recorded using”, “Creek, Calif.) and fluorescence” for “Creek, Calif.). Fluorescence”, “and emission” for “and fluorescence”, “cuvettes (1.5-mL” for “cuvettes (1.4- or 3.5-mL”, “Calif.). Fluorescence quantum yields were determined by reference to fluorescein in 0.1M NaOH (Φ=0.95).” for “Calif.).”

[5] = test system: HeLa cells; assay type: cell-based; details: 5 μM probe; 50 nM MitoTracker Deep Red, 500 nM LysoTracker Red
Experimental: 100 μM H2O2 was then added to one of the petri dishes. At 20 minutes, 50 nM MitoTracker Deep Red, 500 nM Lysotracker Red, and 1 μM Hoechst 33342 were added to both dishes. After an additional 20 minutes (40 minute stimulation total), the two coverslips were put in a single, new petri dish filled with fresh DPBS and confocal images were taken (3.2 μsec pixel time, 100% laser power for 514 line, 4.1% laser power for the 633 line, 26% laser power for the 543 line, scanned using 12-bit multi-track scan mode using a constant receiver gain). Shown above are signals from MitoPY1 (a), MitoTracker Deep Red (b), LysoTracker Red (c), an overlay of MitoTracker Deep Red and MitoPY1 (d), Hoechst (e), and a brightfield image (f) of cells not treated with H2O2, as well as signals from MitoPY1 (g), MitoTracker Deep Red (h), LysoTracker Red (i), an overlay of MitoTracker Deep Red and MitoPY1 (j), Hoechst (k), and a brightfield image (l) of cells treated with H2O2. A 20 μm scale bar shown for all images.
HeLa cells incubated with 5 μM MitoPY1 for 60 min at 37° C. and imaged with MitoPY1 (a), MitoTracker Red and Hoechst (overlay, b), and MitoPY1 with MitoTracker Red (overlay, c). HeLa cells incubated with 5 μM MitoPY1 for 60 min at 37° C. with 100 μM H2O2 added for the final 40 min and imaged with MitoPY1 (d), MitoTracker Red and Hoechst (overlay, e), MitoPY1 and MitoTracker Red (overlay, f), and brightfield (g) with 20 μm scale bar. HeLa cells incubated with 5 μM MitoPY1 for 60 min at 37° C. and imaged with MitoPY1 (h), MitoTracker Red and Hoechst (overlay, i), and MitoPY1 with MitoTracker Red (overlay, j). HeLa cells incubated for 24 h with 1 mM paraquat, then washed and incubated with 5 μM MitoPY1 for 60 min at 37° C. and imaged with MitoPY1 (k), MitoTracker Red and Hoechst (overlay, l), MitoPY1 and MitoTracker Red (overlay, m), and brightfield (n) with 20 μm scale bar.
HEK293 cells were cultured in DMEM (Invitrogen) supplemented with 10% fetal bovine serum (FBS, Hyclone) and glutamine (2 mM). CHO.K1 cells were cultured in DMEM with F-12 supplements, glutamax (Invitrogen), and 5% FBS. Cos-7 cells were cultured in DMEM with high glucose, glutamax, 10% FBS, and non-essential amino acids (Invitrogen). HeLa cells were cultured in DMEM with high glucose, glutamax, and 10% FBS. Two days before imaging, cells were passaged and plated on 18-mm glass coverslips. For all experiments, solutions of dyes (from 5 mM stocks in DMSO) were made in DBPS with calcium chloride and magnesium chloride (Sigma). H2O2 was added by bath application to the medium from a 100 mM aqueous stock. For paraquat treatment, HeLa cells were cultured as described above. One day prior to imaging, 1 mM paraquat was added to cells from a 0.5 M stock solution in water. An equal amount of water was added to control cells at the same time. Cells were then incubated at 37° C., 5% CO2. After 24 hours, the media was exchanged for DPBS with 5 μM dye and incubated for 1 hour.
Confocal fluorescence imaging studies were performed with a Zeiss LSM510 NLO Axiovert 200 laser scanning microscope and a 63× Achroplan IR water-immersion objective lens. Excitation of PY-loaded cells at 510 nm was carried out with an Ar laser and emission was collected using a META detector between 527-580 nm. MitoTracker Deep Red was excited with a 633-nm line and emission was collected between 666-698 nm. LysoTracker Red was excited with a 543-nm line and emission was collected between 580-644 nm. Excitation of Hoechst 33342 was carried out using a MaiTai two-photon laser at 780-nm pulses (mode-locked Ti:sapphire laser, Tsunami Spectra Physics) and emission was collected between 452-537 nm. Image analysis was performed in Adobe Photoshop.
MitoPY1 was tested for its ability to both target the mitochondria and respond to H2O2 in living biological systems. […] Again, co-staining with MitoTracker confirms that the dye is retained in the mitochondria and detects localized rises in H2O2 concentrations.

Compound: CC1(C)OB(c2ccc3c(c2)Oc2cc(B4OC(C)(C)C(C)(C)O4)ccc2N3)OC1(C)C [PR1, 3,7-Bis(pinacolatoboron)phenoxazine]
higher response for H2O2 over .OH ([1]; 100 μM ROS, .OH from Fe2+ with H2O2): > 200 fold
higher response for H2O2 over .OtBu ([1]; 100 μM ROS, .OtBu from Fe2+ with TBHP): > 200 fold
higher response for H2O2 over NO ([1]; 100 μM ROS, NO delivered using SNOC): > 200 fold
higher response for H2O2 over O2− ([1]; 10 mM O2−, 100 μM H2O2): > 1000 fold
intracellular background fluorescence of probe-loaded cells before H2O2 ([2]; 5-10 μM probe, 2-10 min at 25° C.): virtually no background fluorescence
cell viability during imaging ([2]; after probe incubation and H2O2 treatment, brightfield): cells are viable throughout the experiments
membrane permeability / cell entry ([2]; live HEK cells): membrane-permeable
intracellular fluorescence after addition of H2O2 ([2]; probe-loaded cells, 10-100 μM H2O2): Striking increases in intracellular red fluorescence

Compound: O=C(O)c1ccccc1C1c2cc(Cl)c(O)cc2Oc2cc(O)c(Cl)cc21 [DCFH, 2′,7′-dichlorodihydrofluorescein]
fluorescence increase by reaction with .OH or peroxynitrite (ONOO−) ([3]; .OH or ONOO−): ca. 7000 fold
fluorescence increase upon addition of H2O2, previously reported probes ([3]; H2O2): 190 fold
fluorescence increase with NO ([3]; NO): 150 fold
fluorescence increase with O2− ([3]; O2−): 67 fold
fluorescence increase upon light-induced autoxidation ([3]; light-induced autoxidation): 2000 fold

Compound: CC(=O)N1CCN(c2ccc3c(c2)Oc2cc(B4OC(C)(C)C(C)(C)O4)ccc2C32OC(=O)c3ccccc32)CC1 (centres unmarked) [ContPY1]
fluorescence quantum yield Φ [4]: 0.018
extinction coefficient ε at 515 nm of the corresponding rhodol formed with H2O2 ([4]; after reaction with H2O2, 515 nm): 38,200 M^−1 cm^−1
fluorescence quantum yield Φ of the corresponding rhodol formed with H2O2 ([4]; after reaction with H2O2, λem 543 nm): 0.388
extinction coefficient ε at 404 nm ([4]; λabs 404 nm): 4,100 M^−1 cm^−1
extinction coefficient ε at 490 nm ([4]; λabs 490 nm): 15,600 M^−1 cm^−1
extinction coefficient ε at 510 nm [4]: 16,130 M^−1 cm^−1
subcellular localization (co-staining with MitoTracker Deep Red, LysoTracker Red) [5]: only MitoPY1 targets the mitochondria

fluorescence quantum yield Φ [4]: 0.405
extinction coefficient ε at 510 nm [4]: 22,300 M^−1 cm^−1
Compound: O=C1OC2(c3ccc(O)cc3Oc3cc(N4CCN(CCCC[P+](c5ccccc5)(c5ccccc5)c5ccccc5)CC4)ccc32)c2ccccc21 (centres unmarked) [MitoPY1ox]
subcellular localization (co-staining with MitoTracker Deep Red, LysoTracker Red) [5]: only MitoPY1 targets the mitochondria

— patent US8791258B2, “Pro-fluorescent probes” (The Regents of the University of California, priority 2008, dated 2014)
